Laboratory results: ChEMBL document CHEMBL1201862, “PubChem BioAssay data set” (2004)
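1) Cells in 96-well plates. 2) Compound, 48 h, 5 concentrations. 3) Linear interpolation between surrounding doses. 4) Unreached endpoint = highest concentration. Abbreviation: GI50, concentration required for 50% inhibition of growth.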 Activity calls are given as the source filed them. Rule as the data show it: active = GI50 up to about 1.1 µM and inactive = higher.

Legend:
Assay in all cases: inhibition of tumour cell growth, NCI panel, 48 h
[1] = tested on: CAKI-1
[2] = tested on: SK-MEL-2
[3] = tested on: SNB-78
[4] = tested on: HOP-92
[5] = tested on: NCI-H460
[6] = tested on: IGROV-1
[7] = tested on: SF-295
[8] = tested on: CCRF-CEM
[9] = tested on: A549
[10] = tested on: SNB-75
[11] = tested on: SK-MEL-5
[12] = tested on: SK-OV-3
[13] = tested on: SW-620
[14] = tested on: M14
[15] = tested on: HCT-116
[16] = tested on: SR
[17] = tested on: PC-3
[18] = tested on: NCI/ADR-RES
[19] = tested on: MDA-N
[20] = tested on: BT-549

| SMILES | GI50 [1] | GI50 [2] | GI50 [3] | GI50 [4] | GI50 [5] | GI50 [6] | GI50 [7] | GI50 [8] | GI50 [9] | GI50 [10] | GI50 [11] | GI50 [12] | GI50 [13] | GI50 [14] | GI50 [15] | GI50 [16] | GI50 [17] | GI50 [18] | GI50 [19] | GI50 [20] |
| --- | --- | --- | --- | --- | --- | --- | --- | --- | --- | --- | --- | --- | --- | --- | --- | --- | --- | --- | --- | --- |
| Oc1ccc(O)c(-n2cccn2)c1-n1cccn1 | > 100 µM (inactive) | > 100 µM (inactive) | > 100 µM (inactive) | > 100 µM (inactive) | > 100 µM (inactive) | > 100 µM (inactive) | 37.2 µM (inactive) | > 10 µM (inactive) | > 100 µM (inactive) | > 100 µM (inactive) | > 100 µM (inactive) | > 100 µM (inactive) | 44.6 µM (inactive) | > 100 µM (inactive) |  |  |  |  |  |  |
| NC(=S)N/N=C1/CN(c2ccc(Cl)c(Cl)c2)CC(=O)C1c1nc2ccccc2s1 (stereo unspecified) | > 100 µM (inactive) | > 100 µM (inactive) | > 100 µM (inactive) | > 100 µM (inactive) | > 100 µM (inactive) | > 100 µM (inactive) | 46.9 µM (inactive) | 66.2 µM (inactive) | > 100 µM (inactive) | 28.5 µM (inactive) | > 100 µM (inactive) | > 100 µM (inactive) | > 100 µM (inactive) | > 100 µM (inactive) | 35.6 µM (inactive) |  |  |  |  |  |
| COc1ccc(/C=C(\Cl)c2ccc(OC)c(OC)c2)cc1OC | > 100 µM (inactive) | > 100 µM (inactive) |  | 56 µM (inactive) | > 100 µM (inactive) | > 100 µM (inactive) | > 91.8 µM (inactive) | > 100 µM (inactive) | > 100 µM (inactive) | > 100 µM (inactive) | > 100 µM (inactive) | > 100 µM (inactive) | > 100 µM (inactive) | > 100 µM (inactive) | > 100 µM (inactive) | > 100 µM (inactive) | > 100 µM (inactive) | > 100 µM (inactive) | > 100 µM (inactive) | > 100 µM (inactive) |
| O=C(CCCc1cccc2[nH]c3c(c12)CN(Cc1ccccc1)CC3)c1ccc(F)cc1 | > 100 µM (inactive) | > 100 µM (inactive) |  | > 100 µM (inactive) | 31.5 µM (inactive) | > 100 µM (inactive) | > 100 µM (inactive) | 30.4 µM (inactive) | > 95.9 µM (inactive) | > 62.7 µM (inactive) | 18.2 µM (inactive) | > 47.1 µM (inactive) | 83.2 µM (inactive) | 42 µM (inactive) | 18.7 µM (inactive) | 13 µM (inactive) | > 43.6 µM (inactive) | > 100 µM (inactive) | 97.5 µM (inactive) | > 100 µM (inactive) |
| CS(=O)(=O)c1ccc(-c2cc(-c3ccc(S(C)(=O)=O)cc3)[n+](-c3cc(-c4ccc(S(C)(=O)=O)cc4)c([O-])c(-c4ccc(S(C)(=O)=O)cc4)c3)c(-c3ccc(S(C)(=O)=O)cc3)c2)cc1 | > 100 µM (inactive) | > 100 µM (inactive) | > 100 µM (inactive) |  | > 100 µM (inactive) | > 100 µM (inactive) | 91.8 µM (inactive) | > 100 µM (inactive) | > 100 µM (inactive) | > 100 µM (inactive) | > 100 µM (inactive) |  | > 100 µM (inactive) | > 100 µM (inactive) | > 100 µM (inactive) | > 100 µM (inactive) |  |  |  |  |
| Cc1ccc(S(=O)(=O)n2cc(C#N)c(C#N)c2)cc1 | 26.1 µM (inactive) | 24.3 µM (inactive) |  | 31 µM (inactive) | 36.5 µM (inactive) | 31.1 µM (inactive) | 23 µM (inactive) | 30.2 µM (inactive) | 24.7 µM (inactive) | 32.7 µM (inactive) | 21.3 µM (inactive) | 19.1 µM (inactive) | 34.6 µM (inactive) | 22.4 µM (inactive) | 31 µM (inactive) | 24.4 µM (inactive) | 28.9 µM (inactive) | 31.8 µM (inactive) | 27.1 µM (inactive) | 20.6 µM (inactive) |
| CCN=C=NCCCN(C)C | > 100 µM (inactive) | > 100 µM (inactive) |  | > 100 µM (inactive) | > 100 µM (inactive) | > 100 µM (inactive) | > 100 µM (inactive) | > 100 µM (inactive) | > 100 µM (inactive) | > 100 µM (inactive) | > 100 µM (inactive) | > 100 µM (inactive) | > 100 µM (inactive) | > 100 µM (inactive) | > 100 µM (inactive) | > 100 µM (inactive) | > 100 µM (inactive) | > 100 µM (inactive) | > 100 µM (inactive) | > 100 µM (inactive) |
| CCCS(=O)(=O)Nc1ccc(Nc2c3ccccc3nc3ccccc23)c(OC)c1 | 0.4 µM (active) | 2.86 µM (inactive) |  | 1.73 µM (inactive) | 0.0362 µM (active) | 1.31 µM (inactive) | 0.429 µM (active) | 0.0475 µM (active) | 0.43 µM (active) | 1.04 µM (active) | 2 µM (inactive) | 2.08 µM (inactive) | 2.08 µM (inactive) | 0.467 µM (active) | 0.929 µM (active) | 0.0236 µM (active) | 3.88 µM (inactive) | 3.95 µM (inactive) | 4.16 µM (inactive) | 2.37 µM (inactive) |
| Cc1c(CNc2ccc(Cl)c(Cl)c2Cl)cnc2nc(N)nc(N)c12 | > 100 µM (inactive) | 27.1 µM (inactive) |  | 5.85 µM (inactive) | 0.0615 µM (active) | 0.499 µM (active) | 0.065 µM (active) | 0.125 µM (active) | 0.0352 µM (active) | 10.4 µM (inactive) | 0.263 µM (active) | > 35.6 µM (inactive) | 0.179 µM (active) | 0.942 µM (active) | 0.0208 µM (active) | 0.357 µM (active) | 2.58 µM (inactive) | > 100 µM (inactive) | 0.0515 µM (active) | 24.9 µM (inactive) |
| O=C(O)C1(C(=O)O)CC1 | > 100 µM (inactive) | > 100 µM (inactive) | > 100 µM (inactive) |  | > 100 µM (inactive) | > 100 µM (inactive) | > 100 µM (inactive) | > 100 µM (inactive) | > 100 µM (inactive) | > 100 µM (inactive) | > 100 µM (inactive) | > 100 µM (inactive) | > 100 µM (inactive) | 54.7 µM (inactive) | > 100 µM (inactive) |  |  |  |  |  |
| CN(C)c1ccc(/N=N\c2cccc3ccoc23)cc1 | > 62.4 µM (inactive) | > 100 µM (inactive) |  | 70.5 µM (inactive) | > 73.3 µM (inactive) | > 70.3 µM (inactive) | 98.6 µM (inactive) | > 100 µM (inactive) | > 71.9 µM (inactive) | > 84.3 µM (inactive) | 43.4 µM (inactive) | > 100 µM (inactive) | 50.8 µM (inactive) | > 40.8 µM (inactive) | 69.2 µM (inactive) | 23.3 µM (inactive) | 59.6 µM (inactive) | 43.1 µM (inactive) | > 94.4 µM (inactive) | > 95.7 µM (inactive) |
| Cc1ccc(C(=O)/C=C2/Nc3ccc([N+](=O)[O-])cc3N/C2=C/C(=O)c2ccc(C)cc2)cc1 | 87.5 µM (inactive) | 66.5 µM (inactive) |  | 61.4 µM (inactive) | > 100 µM (inactive) | 42.5 µM (inactive) | 41.3 µM (inactive) | 88.3 µM (inactive) | > 100 µM (inactive) | 10.6 µM (inactive) | > 100 µM (inactive) | 41.1 µM (inactive) | > 100 µM (inactive) | > 100 µM (inactive) | > 100 µM (inactive) | 54.2 µM (inactive) | 92.3 µM (inactive) | 47.6 µM (inactive) | > 100 µM (inactive) | > 100 µM (inactive) |
| COc1ccc2[nH]c(C(=O)N3CC(CCl)c4ccc([N+](=O)[O-])cc43)cc2c1 (stereo unspecified) | > 100 µM (inactive) | > 100 µM (inactive) |  | > 100 µM (inactive) | > 100 µM (inactive) | 64.1 µM (inactive) | > 100 µM (inactive) | > 100 µM (inactive) | > 100 µM (inactive) | > 37.7 µM (inactive) | > 100 µM (inactive) | > 100 µM (inactive) | > 100 µM (inactive) | > 100 µM (inactive) | > 100 µM (inactive) | > 100 µM (inactive) | > 100 µM (inactive) | > 100 µM (inactive) | > 100 µM (inactive) | > 100 µM (inactive) |
| COc1cc(S(=O)(=O)Nc2ccc(-c3csc(N4C(=O)CSC4c4ccccc4O)n3)cc2)ccc1Cl (stereo unspecified) | > 100 µM (inactive) | 44.6 µM (inactive) |  | 29.2 µM (inactive) | 21.4 µM (inactive) | 46.3 µM (inactive) | 72.6 µM (inactive) | 23.3 µM (inactive) | 61.8 µM (inactive) | 31.9 µM (inactive) | 58.7 µM (inactive) | > 100 µM (inactive) | 35.2 µM (inactive) | 64.3 µM (inactive) | 32.8 µM (inactive) | 54.8 µM (inactive) | 38.1 µM (inactive) | > 100 µM (inactive) | 32.9 µM (inactive) | 31 µM (inactive) |
| Cc1ccc2nc(NC(=O)C(=O)C3C(=O)NC(=S)NC3=O)sc2c1 | > 100 µM (inactive) | > 100 µM (inactive) |  | > 100 µM (inactive) | > 100 µM (inactive) | 49.4 µM (inactive) | > 100 µM (inactive) | > 100 µM (inactive) | > 100 µM (inactive) | > 100 µM (inactive) | > 100 µM (inactive) | > 100 µM (inactive) | > 100 µM (inactive) | > 100 µM (inactive) | > 100 µM (inactive) | > 10 µM (inactive) | > 100 µM (inactive) | > 100 µM (inactive) | > 100 µM (inactive) | > 100 µM (inactive) |
